Molecular target: T1, P2X7 receptor (Homo sapiens, UniProt Q99572)
T1 construct: host or cells: THP-1 cells differentiated with LPS and IFN-γ
T1 sequence (Q99572 1-595): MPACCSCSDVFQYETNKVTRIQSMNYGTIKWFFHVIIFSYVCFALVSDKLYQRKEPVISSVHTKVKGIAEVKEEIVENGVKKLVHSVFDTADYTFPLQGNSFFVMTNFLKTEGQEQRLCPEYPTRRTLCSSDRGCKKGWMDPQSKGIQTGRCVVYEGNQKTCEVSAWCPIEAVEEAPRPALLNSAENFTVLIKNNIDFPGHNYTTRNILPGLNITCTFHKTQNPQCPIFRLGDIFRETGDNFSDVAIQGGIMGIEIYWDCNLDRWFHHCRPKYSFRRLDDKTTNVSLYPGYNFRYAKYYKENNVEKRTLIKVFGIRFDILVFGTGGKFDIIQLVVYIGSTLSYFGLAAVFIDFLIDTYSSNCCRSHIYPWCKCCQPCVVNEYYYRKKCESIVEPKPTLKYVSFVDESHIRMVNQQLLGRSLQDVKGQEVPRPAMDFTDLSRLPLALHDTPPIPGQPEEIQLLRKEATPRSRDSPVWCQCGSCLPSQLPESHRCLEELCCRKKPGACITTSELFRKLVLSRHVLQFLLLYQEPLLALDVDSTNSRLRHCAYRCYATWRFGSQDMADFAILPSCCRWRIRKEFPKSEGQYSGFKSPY
Experiment: IL-1β release assay in differentiated THP-1 cells stimulated with BzATP (Example 9)
Format: cell-based
Conditions: differentiated THP-1 cells, BzATP 250 uM; for inhibition at 0.1 µM: 0.1 μM compound, symbols * to ****, read-out: IL-1β % Inhib. (asterisk symbols: at 0.1 μM); for inhibition at 0.3 µM: 0.3 μM compound, symbols + to ++++, read-out: IL-1β % Inhib. @ 0.3 μM
How it was run: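 IC50 derived by four-parameter logistic fit of percent inhibition of IL-1β release, measured by ELISA after 45 min stimulation with 250 uM BzATP. Cells: THP-1 differentiated 16 h with 100 ng/mL LPS plus IFN-γ, LPS-primed 2 h, compound added 30 min beforehand.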

| Structure (SMILES) | inhibition at 0.1 µM [%] | inhibition at 0.3 µM [%] |
| --- | --- | --- |
| COc1cc(OC)cc(C(=O)Nc2cccc3c(=O)n(CC(C)(C)C)ccc23)c1 [Compound 1245] | 0 to 25 |  |
| Cc1cccc(C(=O)Nc2cccc3c(=O)n(CC(C)(C)C)ccc23)c1 [Compound 1246] | 0 to 25 |  |
| CC(C(=O)Nc1cccc2c(=O)n(CC(C)(C)C)ccc12)c1ccccc1 (centres unmarked) [Compound 1247] | 0 to 25 |  |
| COc1ccccc1CCC(=O)Nc1cccc2c(=O)n(CC(C)(C)C)ccc12 [Compound 1248] |  | 0 to 25 |
| CC(C)(C)Cn1ccc2c(NC(=O)c3cccc4ccccc34)cccc2c1=O [Compound 1249] |  | 0 to 25 |
| CC(C)(C)Cn1ccc2c(NC(=O)Cc3cccc4ccccc34)cccc2c1=O [Compound 1250] |  | 0 to 25 |
| CC(C)(C)Cn1ccc2c(NC(=O)c3ccc4ccccc4c3)cccc2c1=O [Compound 1251] |  | 0 to 25 |
| CC(C)(C)Cn1ccc2c(NC(=O)Cc3ccccc3F)cccc2c1=O [Compound 1252] |  | 0 to 25 |
| CC(C)(C)Cn1ccc2c(NC(=O)Cc3ccccc3Cl)cccc2c1=O [Compound 1253] |  | 0 to 25 |
| COc1ccccc1CC(=O)Nc1cccc2c(=O)n(CC(C)(C)C)ccc12 [Compound 1254] |  | 0 to 25 |
| Cc1ccccc1CC(=O)Nc1cccc2c(=O)n(CC(C)(C)C)ccc12 [Compound 1256] |  | 0 to 25 |
| COc1cccc(CC(=O)Nc2cccc3c(=O)n(CC(C)(C)C)ccc23)c1 [Compound 1257] |  | 0 to 25 |
| COc1ccc(CC(=O)Nc2cccc3c(=O)n(CC(C)(C)C)ccc23)cc1OC [Compound 1258] |  | 0 to 25 |
| Cc1cccc(CC(=O)Nc2cccc3c(=O)n(CC(C)(C)C)ccc23)c1 [Compound 1259] |  | 0 to 25 |
| COc1ccc(CC(=O)Nc2cccc3c(=O)n(CC(C)(C)C)ccc23)cc1 [Compound 1260] |  | 0 to 25 |
| CCOc1ccc(CC(=O)Nc2cccc3c(=O)n(CC(C)(C)C)ccc23)cc1 [Compound 1261] |  | 0 to 25 |
| Cc1ccc(CC(=O)Nc2cccc3c(=O)n(CC(C)(C)C)ccc23)cc1 [Compound 1262] |  | 0 to 25 |
| CC(C)(C)Cn1ccc2c(NC(=O)CCCc3ccccc3)cccc2c1=O [Compound 1263] |  | 0 to 25 |
| CC(C)(C)Cn1ccc2c(NC(=O)c3cc4ccccc4o3)cccc2c1=O [Compound 1264] |  | 0 to 25 |
| CC(C)(C)Cn1ccc2c(NC(=O)Cc3ccc4c(c3)OCO4)cccc2c1=O [Compound 1265] |  | 26 to 50 |
| COc1cc(CC(=O)Nc2cccc3c(=O)n(CC(C)(C)C)ccc23)cc(OC)c1 [Compound 1266] |  | 0 to 25 |
| COc1c(C)cc(C(=O)Nc2cccc3c(=O)n(CC(C)(C)C)ccc23)cc1C [Compound 1267] |  | 0 to 25 |
| Cc1ccc(C(=O)Nc2cccc3c(=O)n(CC(C)(C)C)ccc23)cc1Cl [Compound 1268] |  | 0 to 25 |
| Cc1cc(Cl)ccc1C(=O)Nc1cccc2c(=O)n(CC(C)(C)C)ccc12 [Compound 1269] |  | 0 to 25 |

| Structure (SMILES) | inhibition at 0.1 µM [%] | inhibition at 0.3 µM [%] |
| --- | --- | --- |
| CC(C)(C)Cn1ccc2c(NC(=O)CC3CC4CC[C@H]3C4)cccc2c1=O (some centres unmarked) [Compound 1270] |  | 0 to 25 |
| CC(C)(C)Cn1ccc2c(NC(=O)[C@@]34C[C@@H]5C[C@@H](C[C@@H]3C5)C4)cccc2c1=O [Compound 1271] |  | 0 to 25 |
| CC(C)(C)Cn1ccc2c(NC(=O)c3cccc4c3OCCO4)cccc2c1=O [Compound 1272] |  | 0 to 25 |
| CC(C)(C)Cn1ccc2c(NC(=O)c3ccc4c(c3)OCCCO4)cccc2c1=O [Compound 1273] |  | 0 to 25 |
| CC(C)(C)Cn1ccc2c(NC(=O)Cc3csc4ccccc34)cccc2c1=O [Compound 1274] |  | 0 to 25 |
| Cc1c(Cl)cccc1C(=O)Nc1cccc2c(=O)n(CC(C)(C)C)ccc12 [Compound 1275] |  | 0 to 25 |
| Cc1cc(C)cc(CC(=O)Nc2cccc3c(=O)n(CC(C)(C)C)ccc23)c1 [Compound 1276] |  | 0 to 25 |
| CC(C)(C)Cn1ccc2c(NC(=O)C3C[C@@H]4CC[C@H]3C4)cccc2c1=O (some centres unmarked) [Compound 1277] |  | ≥ 76 |
| COc1ccc(CC(=O)Nc2cccc3c(=O)n(CC(C)(C)C)ccc23)c(OC)c1 [Compound 1278] |  | 0 to 25 |
| Cc1cc(C(=O)Nc2cccc3c(=O)n(CC(C)(C)C)ccc23)ccc1F [Compound 1279] |  | 0 to 25 |
| CCOc1ccccc1CC(=O)Nc1cccc2c(=O)n(CC(C)(C)C)ccc12 [Compound 1280] |  | 0 to 25 |
| COc1ccc(CC(=O)Nc2cccc3c(=O)n(CC(C)(C)C)ccc23)cc1C [Compound 1281] |  | 26 to 50 |
| Cc1ccc(Cl)c(C(=O)Nc2cccc3c(=O)n(CC(C)(C)C)ccc23)c1 [Compound 1282] |  | 0 to 25 |
| Cc1ccc(Cl)cc1C(=O)Nc1cccc2c(=O)n(CC(C)(C)C)ccc12 [Compound 1283] |  | 26 to 50 |
| Cc1cccc(CCC(=O)Nc2cccc3c(=O)n(CC(C)(C)C)ccc23)c1 [Compound 1284] |  | 0 to 25 |
| Cc1ccc(CCC(=O)Nc2cccc3c(=O)n(CC(C)(C)C)ccc23)c(C)c1 [Compound 1286] |  | 0 to 25 |
| CC(C)(C)Cn1ccc2c(NC(=O)CCc3cccc(Cl)c3)cccc2c1=O [Compound 1287] |  | 0 to 25 |
| CC(C)Cc1ccc(C(=O)Nc2cccc3c(=O)n(CC(C)(C)C)ccc23)cc1 [Compound 1288] |  | 0 to 25 |
| Cc1cccc(C(=O)Nc2cccc3c(=O)n(C)ccc23)c1C [Compound 1289] |  | 0 to 25 |
| COc1cc(OC)cc(C(=O)Nc2cccc3c(=O)n(C)ccc23)c1 [Compound 1290] | 0 to 25 |  |
| CCOc1ccc(C(=O)Nc2cccc3c(=O)n(C)ccc23)cc1 [Compound 1291] |  | 0 to 25 |
| CC(C(=O)Nc1cccc2c(=O)n(C)ccc12)c1ccccc1 (centres unmarked) [Compound 1292] |  | 0 to 25 |
| COc1ccc(CCC(=O)Nc2cccc3c(=O)n(C)ccc23)cc1 [Compound 1293] |  | 0 to 25 |
| Cn1ccc2c(NC(=O)Cc3ccccc3F)cccc2c1=O [Compound 1294] |  | 0 to 25 |

| Structure (SMILES) | inhibition at 0.1 µM [%] | inhibition at 0.3 µM [%] |
| --- | --- | --- |
| COc1ccccc1CC(=O)Nc1cccc2c(=O)n(C)ccc12 [Compound 1295] |  | 0 to 25 |
| Cc1ccccc1CC(=O)Nc1cccc2c(=O)n(C)ccc12 [Compound 1296] |  | 0 to 25 |
| COc1cccc(CC(=O)Nc2cccc3c(=O)n(C)ccc23)c1 [Compound 1297] |  | 26 to 50 |
| Cc1cccc(CC(=O)Nc2cccc3c(=O)n(C)ccc23)c1 [Compound 1298] |  | 0 to 25 |
| COc1ccc(CC(=O)Nc2cccc3c(=O)n(C)ccc23)cc1 [Compound 1299] |  | 0 to 25 |
| Cn1ccc2c(NC(=O)c3cc4ccccc4o3)cccc2c1=O [Compound 1300] |  | 0 to 25 |
| Cn1ccc2c(NC(=O)Cc3ccc4c(c3)OCO4)cccc2c1=O [Compound 1301] |  | 0 to 25 |
| Cn1ccc2c(NC(=O)CC3CC4CC[C@H]3C4)cccc2c1=O (some centres unmarked) [Compound 1302] |  | 0 to 25 |
| Cn1ccc2c(NC(=O)[C@@]34C[C@@H]5C[C@@H](C[C@@H]3C5)C4)cccc2c1=O [Compound 1303] |  | 0 to 25 |
| Cn1ccc2c(NC(=O)c3cccc4c3OCCO4)cccc2c1=O [Compound 1304] |  | 0 to 25 |
| Cn1ccc2c(NC(=O)c3ccc4c(c3)OCCCO4)cccc2c1=O [Compound 1305] |  | 0 to 25 |
| Cn1ccc2c(NC(=O)C3C[C@@H]4CC[C@H]3C4)cccc2c1=O (some centres unmarked) [Compound 1306] |  | 0 to 25 |
| CCOc1ccccc1CC(=O)Nc1cccc2c(=O)n(C)ccc12 [Compound 1307] |  | 0 to 25 |
| Cn1ccc2c(NC(=O)c3cc4cc(Cl)ccc4o3)cccc2c1=O [Compound 1308] |  | 0 to 25 |
| Cn1ccc2c(NC(=O)CCc3cccc(Cl)c3)cccc2c1=O [Compound 1309] |  | ≥ 76 |
| COCCn1ccc2c(NC(=O)c3ccccc3C)cccc2c1=O [Compound 1310] |  | 0 to 25 |
| COCCn1ccc2c(NC(=O)CCc3ccc(OC)cc3)cccc2c1=O [Compound 1311] |  | 0 to 25 |
| COCCn1ccc2c(NC(=O)c3cccc4ccccc34)cccc2c1=O [Compound 1312] |  | 0 to 25 |
| COCCn1ccc2c(NC(=O)Cc3cc(OC)ccc3OC)cccc2c1=O [Compound 1313] | 0 to 25 |  |
| COCCn1ccc2c(NC(=O)Cc3ccc(OC)c(OC)c3)cccc2c1=O [Compound 1314] |  | 0 to 25 |
| COCCn1ccc2c(NC(=O)Cc3cccc(C)c3)cccc2c1=O [Compound 1315] |  | 0 to 25 |
| COCCn1ccc2c(NC(=O)Cc3ccc(OC)cc3)cccc2c1=O [Compound 1316] |  | 0 to 25 |
| CCOc1ccc(CC(=O)Nc2cccc3c(=O)n(CCOC)ccc23)cc1 [Compound 1317] |  | 0 to 25 |
